Patent US10934305B2, “SHMT inhibitors” (The Trustees of Princeton University, priority 2016, dated 2021)

What was measured:
[1] = target: human SHMT2 (Homo sapiens (Human), UniProt P34897); test: SHMT2 in vitro enzymatic assay (coupled with MTHFD2, NADH absorption at 340 nm); assay type: biochemical; details: SHMT2 IC50 (μM), Table 2
Experimental: Inhibition of human SHMT by compounds in this disclosure is evaluated, for example, in their racemic forms in an in vitro assay.
For the SHMT1 and SHMT2 in vitro enzymatic assays, the rate of 5,10-methylene tetrahydrofolate formation catalyzed by SHMT1/2 was indirectly evaluated by coupling with excess MTHFD2, which converts NAD+ to NADH allowing for reaction monitoring by absorption at 340 nm. […] Inhibition of initial reaction velocity was determined by adding various inhibitors at different concentrations and monitored as described. IC50 may be calculated based on this assay.

[2] = tested on: HCT116 cells; test: Formate rescue assay in cell growth assay; assay type: cell-based, human; details: for rescue of effects on cell growth by addition of formate: Table 5 cells
Experimental: Application of formate is shown to rescue the anti-growth effect in certain human cells treated with SHMT inhibitors in a cell growth assay.
(§1) The described cell lines for Examples 8 and 9 are cultured in 96-well plates in Dulbecco's modified eagle media (DMEM) without pyruvate (CELLGRO) with 10% dialysed fetal bovine serum (Invitrogen) in 5% CO2 at 37° C. Approximately 2,500 cells are plated in each well in 90 uL of media. After 24 hours cells are treated with various concentrations of inhibitor (time=0 hours), with or without formate. Growth was assessed at multiple time points (time=0, 24, 48, 72 hours) through measurement of fluorescence at 595 nm (excitation at 535 nm) on a BioTek micro titer plate reader after incubation with resazurin (0.01 mg/mL for 1.5 hours). IC50 curves are generated from percent inhibition of growth at 72 hours.

[3] = tested on: HCT116 cells; test: Cell growth assay (resazurin), HCT116 wild-type; assay type: cell-based, human
Experimental: (§2) Inhibitors of SHMT were evaluated in various cancer cell lines, in the presence and absence of mutations in mitochondrial folate pathway enzymes.
as §1

[4] = tested on: SHMT2 knock-out HCT116 cells; test: Cell growth assay, SHMT2 deletion (knock-out) HCT-116 cells; assay type: cell-based, human; details: FIG. 3B
Experimental: as §2, §1
Clonal deletion cell lines of SHMT1, SHMT2, and SHMT1/2 were generated from the human colorectal carcinoma cell line HCT-116. Paired Cas9 nickase (Cas9n) containing constructs that encoded single-guide RNA sequences targeting SHMT1 or 2 were transiently transfected into cells, and mutant colonies from single clones were picked as described in Ducker et al., (2016) Reversal of Cytosolic One-Carbon Flux Compensates for Loss of the Mitochondrial Folate Pathway, Cell Metab 23, 1140-1153. […]

[5] = tested on: Su-DHL-2 cells; test: Cellular growth assay (cell count), Su-DHL-2 DLBCL line; assay type: cell-based, human; details: Su-DHL-2, 5 μM inhibitor + 1 mM formate
Experimental: (§3) Jurkat, REH, Farage, Daudi, Su-DHL2, Su-DHL-4, Su-DHL-6 cells were purchased from ATCC. Cells were subcultured in RPMI supplemented with 10% FBS. For growth assays, cells were seeded at 2×10^5/mL in 5 mL growth media in 12.5 cm flasks. Media was supplemented with sodium formate (1 mM), additional glycine (100 mg/L) and an SHMTi (5 uM). Cells were sampled daily, and counted using trypan blue staining and light microscopy.

[6] = tested on: Jurkat cells; test: Cellular growth assay, Jurkat T-cell leukemia line; assay type: cell-based, human; details: 5 μM inhibitor + 1 mM sodium formate
Experimental: as §3

[7] = tested on: 8988T cells; test: Growth of pancreatic cancer cell line 8988T; assay type: cell-based, human; details: FIG. 9E
[8] = tested on: Su-DHL4 cells; test: Cellular growth assay, Su-DHL4 DLBCL line; assay type: cell-based, human; details: SU-DHL4, RPMI, FIG. 12C
Experimental: as §3

[9] = tested on: Su-DHL4 cells; test: Apoptosis by flow cytometry (Annexin V surface staining); assay type: cell-based, human
Description: Apoptosis was enhanced by co-treatment with formate. In contrast, as expected, formate rescued Jurkat E6-1 leukemia cells from apoptosis (FIG. 11C). Without wishing to be bound by theory, it is hypothesized that the failure of formate to rescue growth in the DLBCL cell lines is due to a requirement for both glycine and 1C units made by SHMT in these cells. When glycine is limiting, formate can enhance the cytotoxicity of SHMT inhibition. […] Mechanistically, by supplying 5,10-methylene-THF, formate may drives residual SHMT enzymatic function in the […] direction.
In contrast, cell growth is further decreased in Su-DHL4 cells by addition of formate. This can be further exacerbated by removal of glycine from the media. […] Using flow cytometry, apoptosis of Su-DHL4 cells were studied with AnnexinV surface staining (FIGS. 12D and 12E).

human SHMT2, sequence (P34897 30-504): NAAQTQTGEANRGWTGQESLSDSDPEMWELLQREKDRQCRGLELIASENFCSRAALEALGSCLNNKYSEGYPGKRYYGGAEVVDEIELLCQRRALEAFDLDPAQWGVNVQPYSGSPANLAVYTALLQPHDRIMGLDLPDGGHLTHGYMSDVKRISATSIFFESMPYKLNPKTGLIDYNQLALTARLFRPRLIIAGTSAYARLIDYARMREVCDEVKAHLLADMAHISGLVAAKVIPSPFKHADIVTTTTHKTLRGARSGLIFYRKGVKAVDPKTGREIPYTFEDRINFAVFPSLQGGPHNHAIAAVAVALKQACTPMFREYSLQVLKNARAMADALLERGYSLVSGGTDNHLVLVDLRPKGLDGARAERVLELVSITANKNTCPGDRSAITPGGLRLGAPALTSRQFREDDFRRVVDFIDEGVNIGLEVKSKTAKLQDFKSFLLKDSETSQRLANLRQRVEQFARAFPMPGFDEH

SMILES: Cc1n[nH]c2c1C(c1cc(C#CCCC(=O)O)cc(C(F)(F)F)c1)(C(C)C)C(C#N)=C(N)O2 (racemic) [1 (enantiomeric mixture)]
- IC50 [1]: 0.00065 µM

SMILES: Cc1n[nH]c2c1C(c1cc(C#CCCC(=O)O)cc(C(F)(F)F)c1)(C(C)C)C(C#N)=C(N)O2 (stereo not drawn) [1 (enatiomerically active peak)]
- IC50 [1]: 0.00079 µM
- % formate rescue ([2]; HCT cells, Table 2): 94.96%
- IC50 ([3]; Table 2, read-out: HCT Cell IC50): 1360 nM

SMILES: Cc1n[nH]c2c1C(c1cc(C#CCCCO)cc(C(F)(F)F)c1)(C(C)C)C(C#N)=C(N)O2 (stereo not drawn) [Compound 61, 6-amino-4-(3-(5-hydroxypent-1-yn-1-yl)-5-(trifluoromethyl)phenyl)-4-isopropyl-3-methyl-1,4-dihydropyrano[2,3-c]pyrazole-5-carbonitrile]
- growth of SHMT2 knock-out HCT116 cells versus native [4]: increased potency
- growth (proliferation) of HCT116 cells ([3]; native HCT116, FIG. 3A): inhibited growth

SMILES: Cc1n[nH]c2c1[C@@](c1cc(C(F)(F)F)cc(C(F)(F)F)c1)(C(C)C)C(C#N)=C(N)O2 [HK-16 (PK-2)]
- rescue of growth inhibition by formate [5]: not rescued
- rescue of growth inhibition by formate [6]: significantly rescued

SMILES: Cc1n[nH]c2c1C(c1cc(N3CCCC3)cc(C(F)(F)F)c1)(C(C)C)C(C#N)=C(N)O2 (stereo not drawn) [HK-X1]
- rescue of effects on cell growth by addition of formate [2]: rescued

SMILES: Cc1n[nH]c2c1C(c1cc(CO)cc(-c3ccccc3)c1)(C(C)C)C(C#N)=C(N)O2 (stereo not drawn) [HK-X2]
- concentration impairing cell growth [7]: < 100 nM
- rescue of effects on cell growth by addition of formate [2]: rescued
- IC70 [8]: 5000 nM
- apoptotic fraction of cells ([9]; Su-DHL4, inhibitor alone (control 2%)): 8%
- apoptotic fraction of cells ([9]; Su-DHL4, inhibitor in the presence of formate): 15%
- apoptosis by Annexin V surface staining ([9]; Su-DHL-4): induced apoptosis
